Results on 18 molecules are retold here after PubChem BioAssay (NCI).

Some test systems named below: HOP-92 NSCLC; OVCAR-5 ovarian; TK-10 renal; MOLT-4 leukemia; NCI-H460 lung; NCI/ADR-RES ovarian; EKVX NSCLC; SF-539 CNS.
Holding throughout (assay): NCI anticancer screen, dose series, 48 h

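Exposure lasted 48 hours, with cells grown in 96-well plates and compounds tested at five concentrations. TGI: concentration producing complete growth inhibition.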

Regarding `C=CCP(=O)(CC=C)C(Cl)Cl`, the TGI with HOP-92 NSCLC, with OVCAR-5 ovarian, with TK-10 renal, in the assay with MOLT-4 leukemia, in the assay on NCI-H460 lung and with NCI/ADR-RES ovarian was above 100 µM throughout.

As for `O=C(c1cccs1)N1CCN(C(=O)c2cccs2)C1=S`, the TGI turned out to be 20.7 µM with HOP-92 NSCLC; 30.3 µM in the assay with OVCAR-5 ovarian; 19 µM with TK-10 renal; 27.8 µM in the assay with EKVX NSCLC; 8.18 µM with MOLT-4 leukemia; 19.1 µM in the assay on NCI-H460 lung. The TGI in the assay with NCI/ADR-RES ovarian was found to be 59 µM; with SF-539 CNS it was 4.84 µM.

For `O=C(N/N=C/C=C/c1ccccc1)c1ccccc1Nc1ccccc1C(=O)N/N=C/C=C/c1ccccc1`, the TGI in the assay on HOP-92 NSCLC, with OVCAR-5 ovarian, with TK-10 renal, in the assay on EKVX NSCLC, in the assay with MOLT-4 leukemia and in the assay on NCI-H460 lung was above 100 µM each time. The molecule further gave a TGI in the assay on NCI/ADR-RES ovarian above 100 µM.

In the case of `Cc1ccc(S(=O)CC(CF)OCn2cc(C)c(=O)[nH]c2=O)cc1` (stereo not drawn), the TGI in the assay with HOP-92 NSCLC, in the assay with OVCAR-5 ovarian, with TK-10 renal, with MOLT-4 leukemia, in the assay on NCI-H460 lung and in the assay on NCI/ADR-RES ovarian was above 100 µM each time. This molecule yielded a TGI with SF-539 CNS above 100 µM.

`CN1CC2=C(NC(=S)NC2c2ccccc2)/C(=C/c2ccccc2)C1` (stereo not drawn): the TGI is above 100 µM with OVCAR-5 ovarian; above 100 µM in the assay with TK-10 renal; above 100 µM in the assay on EKVX NSCLC; 44.7 µM in the assay with MOLT-4 leukemia; above 100 µM in the assay on NCI-H460 lung; above 100 µM with NCI/ADR-RES ovarian. The TGI with SF-539 CNS is above 100 µM.

For `COC(=O)C1C(=O)N(C)C(=O)N2CCCC12` (stereo not drawn), the TGI in the assay on HOP-92 NSCLC, in the assay with OVCAR-5 ovarian, with TK-10 renal, with EKVX NSCLC, in the assay with MOLT-4 leukemia and in the assay on NCI-H460 lung was above 100 µM in each case. Moreover, the TGI with NCI/ADR-RES ovarian and in the assay with SF-539 CNS was above 100 µM in each case.

As for `Cc1ccccc1N=C(N)Nc1ccccc1C`, the TGI in the assay on OVCAR-5 ovarian, in the assay on TK-10 renal, in the assay with EKVX NSCLC, in the assay with MOLT-4 leukemia, in the assay with NCI-H460 lung and in the assay on NCI/ADR-RES ovarian was above 100 µM each time. The TGI in the assay with SF-539 CNS is above 100 µM.

On to `COc1ccc(-c2oc3cc(O)cc(O)c3c(=O)c2OC)cc1`, for which the TGI is 16.1 µM in the assay on HOP-92 NSCLC; above 100 µM in the assay with OVCAR-5 ovarian; above 100 µM with TK-10 renal; above 100 µM in the assay with EKVX NSCLC; 87.9 µM with MOLT-4 leukemia; 65.6 µM in the assay on NCI-H460 lung. Besides, in the assay on NCI/ADR-RES ovarian, the TGI is above 100 µM.

As for `CCOC(=O)Nn1c(CC#N)nnc1Cc1ccccc1`, the TGI in the assay with HOP-92 NSCLC, in the assay on OVCAR-5 ovarian, in the assay with TK-10 renal, with MOLT-4 leukemia, with NCI-H460 lung and in the assay on NCI/ADR-RES ovarian was above 100 µM throughout. For the same molecule, the TGI with SF-539 CNS is above 100 µM.

With `CN1C(=O)C(O)C[C@@H]1c1ccccc1` (stereo partly drawn), the TGI in the assay with HOP-92 NSCLC, in the assay on OVCAR-5 ovarian, in the assay on TK-10 renal, in the assay on EKVX NSCLC, in the assay on MOLT-4 leukemia and in the assay with NCI/ADR-RES ovarian was above 100 µM in each case. In addition, in the assay on SF-539 CNS, the TGI was above 100 µM.

Take `CC1(C)CC(=O)C2(CC(CSc3ccccc3)C(CS(=O)(=O)c3ccccc3)C2)C(=O)C1` (stereo not drawn): the TGI in the assay on HOP-92 NSCLC, with OVCAR-5 ovarian, with TK-10 renal, in the assay with EKVX NSCLC, in the assay on MOLT-4 leukemia and with NCI/ADR-RES ovarian was above 100 µM in each case. In the assay on SF-539 CNS, the TGI was above 100 µM.

In the case of `CCCSc1ccc2[nH]c(N3C(=O)/C(=C/c4ccccc4)N=C3c3ccccc3)cc2c1`, the TGI with HOP-92 NSCLC, in the assay with OVCAR-5 ovarian, with EKVX NSCLC, in the assay on MOLT-4 leukemia, with NCI/ADR-RES ovarian and in the assay with SF-539 CNS was above 50 µM throughout.

`CCOC(=O)c1cc(C)nc2c1c(=O)n(-c1ccccc1)c(=O)n2CCCCN1CCN(c2ccccc2)CC1`: the TGI in the assay with HOP-92 NSCLC, in the assay on OVCAR-5 ovarian, in the assay on TK-10 renal, in the assay on EKVX NSCLC, in the assay with MOLT-4 leukemia and in the assay on NCI/ADR-RES ovarian was above 100 µM each time.

With `C=C(C)[C@H]1C2=CC(C)=C(O2)[C@@H](O[C@@H]2c3oc(cc3C)[C@H](C(=C)C)[C@H]3C=C(CC[C@H]2C(=C)C)C(=O)O3)[C@H](C(=C)C)CCC2=C[C@H]1OC2=O`, the TGI in the assay on HOP-92 NSCLC, with OVCAR-5 ovarian, in the assay on TK-10 renal, with EKVX NSCLC, in the assay on MOLT-4 leukemia and in the assay on NCI-H460 lung was above 100 µM in each case. Further, in the assay on NCI/ADR-RES ovarian, the TGI was above 100 µM.

Regarding `CN(C)/N=N/c1nc2c(c(=O)n(C)c(=O)n2C)n1CC(O)CO` (stereo not drawn), the TGI in the assay with OVCAR-5 ovarian, in the assay with TK-10 renal, with EKVX NSCLC, with MOLT-4 leukemia, in the assay with NCI-H460 lung and in the assay on NCI/ADR-RES ovarian was above 100 µM in each case.

Regarding `C/C(=N\NC(=S)N(C)C)c1cccnn1`, the TGI in the assay with OVCAR-5 ovarian is above 57.3 µM; in the assay on TK-10 renal, above 100 µM; in the assay with EKVX NSCLC, 10.4 µM; in the assay on MOLT-4 leukemia, 3.08 µM; in the assay with NCI/ADR-RES ovarian it was 36.6 µM; with SF-539 CNS, 1.65 µM.

In the case of `C=CCOn1c(C=C)nc2ccc(C)cc21`, the TGI in the assay with HOP-92 NSCLC is above 100 µM; in the assay on OVCAR-5 ovarian, 41.7 µM; with TK-10 renal, 32.4 µM; with EKVX NSCLC, 37.8 µM; in the assay on MOLT-4 leukemia, 68.8 µM; with NCI-H460 lung, 32.8 µM. The molecule further yielded a TGI in the assay with NCI/ADR-RES ovarian above 100 µM.

For `C/C(=N\Nc1nc2ccccc2n1C)c1cc2ccccc2cn1`, the TGI stood at 3.86 µM in the assay on HOP-92 NSCLC; 21.6 µM in the assay with OVCAR-5 ovarian; 6.86 µM with TK-10 renal; 5 µM in the assay on EKVX NSCLC; 7.05 µM in the assay with NCI-H460 lung; 1.55 µM in the assay on NCI/ADR-RES ovarian. This molecule returned a TGI in the assay with SF-539 CNS of 14.5 µM.
